Experimental findings from patent publication US20240398757A1 (COCRYSTAL PHARMA, INC., priority 2022, published 2024) are described below.

This experiment addresses T1, SARS2 protease (Severe acute respiratory syndrome coronavirus 2, UniProt P0DTD1).
T1 construct: SARS2 protease was added to a final concentration of 30 nM
As to the kind of experiment: SARS-CoV-2 protease inhibition assay (SARS2 FRET protease assay). The conditions noted are these: IC50 (μM), SARS2 protease 30 nM, peptide substrate 1.3 μM, 120 minutes at 37° C., compounds 20 μM to 0.075 nM. It counts as biochemical.
As a reminder, the IC50 is the midpoint of a concentration-inhibition curve. As to `CCNC(=O)C(=O)[C@H](C[C@@H]1CCNC1=O)NC(=O)[C@H](Cc1ccccc1)NC(=O)OC(c1ccccc1)C(F)(F)c1cccc(Cl)c1` (stereo partly drawn) [Compound A240, 2-(3-chlorophenyl)-2,2-difluoro-1-phenylethyl ((S)-1-(((S)-4-(ethylamino)-3,4-dioxo-1-((S)-2-oxopyrrolidin-3-yl)butan-2-yl)amino)-1-oxo-3-phenylpropan-2-yl)carbamate], the IC50 worked out at 638 nM.

Consider `CCNC(=O)C(=O)[C@H](C[C@@H]1CCNC1=O)NC(=O)[C@H](Cc1ccccc1)NC(=O)OCCCc1ccccc1` [Compound A276, 3-Phenylpropyl ((S)-1-(((S)-4-(ethylamino)-3,4-dioxo-1-((S)-2-oxopyrrolidin-3-yl)butan-2-yl)amino)-1-oxo-3-phenylpropan-2-yl) carbamate], for which the IC50 was determined as 4150 nM.

`O=C[C@H](C[C@@H]1CCNC1=O)NC(=O)[C@H](CC1CCCC1)NC(=O)OC(c1ccccc1)C(F)(F)c1cccc(Cl)c1` (stereo partly drawn) [Compound A93, 2-(3-chlorophenyl)-2,2-difluoro-1-phenylethyl ((S)-3-cyclopentyl-1-oxo-1-(((S)-1-oxo-3-((S)-2-oxopyrrolidin-3-yl)propan-2-yl)amino)propan-2-yl)carbamate] returned an IC50 of 0.3 nM.

`CCC(=O)OC([C@H](C[C@@H]1CCNC1=O)NC(=O)[C@H](CC1CCCCC1)NC(=O)O[C@H](c1ccccc1)C(F)(F)c1cccc(Cl)c1)S(=O)(=O)O` (stereo partly shown) [Compound A212] yielded a half-inhibitory concentration (IC50) of 4150 nM.

On to `CC(C)C[C@H](NC(=O)OC(c1cccc(F)c1)C(C)(C)c1cccc(Cl)c1)C(=O)N[C@H](C=O)C[C@@H]1CCNC1=O` (stereo partly shown) [Compound A11], for which the IC50 is 0.1 nM.

In the case of `O=C(N[C@@H](CCCF)C(=O)N[C@@H](C[C@@H]1CCNC1=O)C(=O)C(=O)NC1CC1)OC(c1ccccc1)C(F)(F)c1cccc(Cl)c1` (stereo partly shown) [Compound A180], the IC50 worked out at 95 nM.

Regarding `O=C(N[C@@H](CC1CCCCC1)C(=O)N[C@@H](C[C@@H]1CCCNC1=O)C(=O)C(=O)NC1CC1)OC(c1ccccc1)C(F)(F)c1cccc(Cl)c1` (stereo partly shown) [Compound A129], the midpoint of inhibition, the IC50, lay at 130 nM.

Compound `O=C[C@H](C[C@@H]1CCNC1=O)NC(=O)[C@H](CCCF)NC(=O)OC(c1ccccc1)C(F)(F)c1cccc(Cl)c1` (stereo partly shown) [Compound A219] returned an IC50 of 160 nM.

`CC(C)C[C@H](NC(=O)OC(C(C)C)C(F)(F)c1cccc(C2CC2)c1)C(=O)N[C@@H](C[C@@H]1CCNC1=O)C(=O)C(=O)NC1CC1` (stereo partly shown) [Compound A181] displayed an IC50 of 520 nM.

`CC(C)C[C@H](NC(=O)OC(c1ccccc1)C(C)(C)c1cccc(C(F)(F)F)c1)C(=O)N[C@H](C=O)C[C@@H]1CCNC1=O` (stereo partly shown) [Compound A171] registered an IC50 of 0.1 nM.

For the compound `CC(C)C[C@H](NC(=O)OC(c1cccc(Cl)c1)C1(c2cccc(Cl)c2)CCC1)C(=O)N[C@H](C=O)C[C@@H]1CCNC1=O` (stereo partly shown) [Compound A7], the half-inhibitory concentration (IC50) stood at 120 nM.

Compound `CCCC[C@H](NC(=O)OC(c1ccccc1)C(F)(F)c1cccc(Cl)c1)C(=O)NC(CN1CCNC1=O)C(=O)C(=O)NC1CC1` (stereo partly shown) [Compound A306] registered an IC50 of 4410 nM.

Compound `CCCCCOC(=O)N[C@@H](CC(C)C)C(=O)N[C@@H](C[C@@H]1CCNC1=O)C(=O)C(=O)NC1CC1` [Compound A12] displayed an IC50 of 876 nM.

In the case of `CCCC[C@H](NC(=O)OC(c1ccccc1)C(C)(C)c1cccc(Cl)c1)C(=O)N[C@@H](C[C@@H]1CCNC1=O)C(=O)C(=O)NC1CC1` (stereo partly shown) [Compound A189], the IC50 came to 1370 nM. Compared with the last compound, the IC50 is about 1.6-fold higher.

For `CCC(CC)(c1cccc(Cl)c1)C(OC(=O)N[C@@H](CC(C)C)C(=O)N[C@H](C=O)C[C@@H]1CCNC1=O)c1ccc(F)c(F)c1` (stereo partly shown) [Compound A18], inhibition was half-maximal at 10 nM (IC50).

Turning to `CC(C)(c1cccc(F)c1)C(OC(=O)N[C@@H](CC1CCCCC1)C(=O)N[C@H](C=O)C[C@@H]1CCNC1=O)c1ccccc1` (stereo partly shown) [Compound A34], half-maximal inhibition (IC50) required 0.1 nM.

`CCCC[C@H](NC(=O)OC(c1ccccc1)C1(c2cccc(F)c2)CC1)C(=O)N[C@@H](C[C@@H]1CCNC1=O)C(=O)C(=O)NC1CC1` (stereo partly shown) [Compound A56]: the IC50 worked out at 560 nM.

Consider `CCNC(=O)C(=O)[C@H](C[C@@H]1CCNC1=O)NC(=O)[C@H](CC1(C)CCC1)NC(=O)O[C@@H](c1ccccc1)C(F)(F)c1cccc(Cl)c1` [Compound A327], for which the IC50 stood at 5330 nM.

`O=C[C@H](C[C@@H]1CCNC1=O)NC(=O)[C@H](Cc1ccccc1)NC(=O)OCCCc1ccccc1` [Compound A277, 3-Phenylpropyl ((S)-1-oxo-1-(((S)-1-oxo-3-((S)-2-oxopyrrolidin-3-yl)propan-2-yl)amino)-3-phenylpropan-2-yl) carbamate] showed an IC50 of 218 nM.

Compound `CC(C)C[C@H](NC(=O)O[C@H](c1cccc(Cl)c1)C(C)(C)c1cccc(Cl)c1)C(=O)N[C@H](C=O)C[C@@H]1CCNC1=O` [Compound A140] came in with an IC50 of 45 nM.

On to `CCCC[C@H](NC(=O)CC(O)(Cc1cccc(Cl)c1)c1ccccc1)C(=O)N[C@@H](C[C@@H]1CCNC1=O)C(=O)C(=O)NCC` (stereo partly drawn) [Compound A259, (2S)-2-(4-(3-chlorophenyl)-3-hydroxy-3-phenylbutanamido)-N—((S)-4-(ethylamino)-3,4-dioxo-1-((S)-2-oxopyrrolidin-3-yl)butan-2-yl)hexanamide], for which it took 413 nM to reach half-maximal inhibition (IC50).

In the case of `CC(C)C[C@H](NC(=O)OC(c1ccccc1)C(F)(F)c1cccc(F)c1)C(=O)N[C@@H](C[C@@H]1CCNC1=O)C(=O)C(=O)NC1CC1` (stereo partly shown) [Compound A10], it took 5 nM to reach half-maximal inhibition (IC50).

For the compound `CC(C)C[C@H](NC(=O)O[C@H](c1ccc(Cl)cc1)C1(c2cccc(Cl)c2)CC1)C(=O)N[C@H](C=O)C[C@@H]1CCNC1=O` [Compound A45], the IC50 came to 20 nM.

Consider `CC(C)C[C@H](NC(=O)O[C@@H](c1ccccc1)C(F)(F)c1cccc(Cl)c1)C(=O)N[C@@H](C[C@@H]1CCNC1=O)C(=O)C(N)=O` [Compound A282, (S)-2-(3-chlorophenyl)-2,2-difluoro-1-phenylethyl ((S)-1-(((S)-4-amino-3,4-dioxo-1-((S)-2-oxopyrrolidin-3-yl)butan-2-yl)amino)-4-methyl-1-oxopentan-2-yl)carbamate], for which it took 1 nM to reach half-maximal inhibition (IC50). This IC50 is about 20-fold lower than that of the compound before.

In turn, `CC(C)C[C@H](NC(=O)OC(c1ccccc1)C(F)(F)c1cccc(-c2ccccc2)c1)C(=O)N[C@@H](C[C@@H]1CCNC1=O)C(=O)C(=O)NC1CC1` (stereo partly shown) [Compound A191] came in with an IC50 of 6 nM. This IC50 lies about 6-fold higher than the previous one.

`CCCC[C@H](NC(=O)OC(c1ccccc1)C(F)(F)c1cccc(Cl)c1)C(=O)N[C@@H](C[C@@H]1CCNC1=O)C(=O)C(=O)NC1CC1` (stereo partly shown) [Compound A51] had an IC50 of 130 nM.

As to `CC(C)C[C@H](NC(=O)OC(c1ccccc1)C(F)(F)c1cccc(F)c1)C(=O)N[C@H](C=O)C[C@@H]1CCNC1=O` (stereo partly shown) [Compound A2], inhibition was half-maximal at 4 nM (IC50).

In turn, `CCNC(=O)C(=O)[C@H](C[C@@H]1CCNC1=O)NC(=O)[C@H](CC1CCCCC1)NC(=O)OC(c1ccccc1)C(C)(C)c1cccc(F)c1` (stereo partly shown) [Compound A130] returned an IC50 of 88 nM. This IC50 lies about 22-fold higher than the previous one.

`CCNC(=O)C(=O)[C@H](C[C@@H]1CCNC1=O)NC(=O)[C@H](CC1CCCCC1)NC(=O)O[C@@H](c1ccccc1)C(F)(F)c1cccc(Cl)c1` [Compound A120] registered an IC50 of less than 0.01 nM.

Regarding `CCC(=O)OC([C@H](C[C@@H]1CCNC1=O)NC(=O)[C@H](CC1CCCCC1)NC(=O)O[C@@H](c1ccccc1)C(F)(F)c1cccc(Cl)c1)S(=O)(=O)O` (stereo partly shown) [Compound A211], 504 nM corresponded to half-maximal inhibition (IC50).

`O=C(N[C@@H](CC1CCCCC1)C(=O)N[C@@H](C[C@@H]1CCNC1=O)C(O)S(=O)(=O)O)O[C@@H](c1ccccc1)C(F)(F)c1cccc(Cl)c1` (stereo partly drawn) [Compound A141, sodium (2S)-2-((S)-2-((((S)-2-(3-chlorophenyl)-2,2-difluoro-1-phenylethoxy)carbonyl)amino)-3-cyclohexylpropanamido)-1-hydroxy-3-((S)-2-oxopyrrolidin-3-yl)propane-1-sulfonate] displayed an IC50 of 55 nM.

In turn, `CCC(CC)(c1cccc(Cl)c1)C(OC(=O)N[C@@H](CC(C)C)C(=O)N[C@H](C=O)C[C@@H]1CCNC1=O)c1ccc(Cl)cc1` (stereo partly shown) [Compound A46] showed an IC50 of 1740 nM.

`CCCC[C@H](NC(=O)O[C@@H](c1cccnc1)C(F)(F)c1cccc(Cl)c1)C(=O)N[C@H](C=O)C[C@@H]1CCNC1=O` [Compound A267, (S)-2-(3-chlorophenyl)-2,2-difluoro-1-(pyridin-3-yl)ethyl ((S)-1-oxo-1-(((S)-1-oxo-3-((S)-2-oxopyrrolidin-3-yl)propan-2-yl)amino)hexan-2-yl)carbamate] displayed an IC50 of 9 nM.

As for `O=C[C@H](C[C@@H]1CCNC1=O)NC(=O)[C@H](Cc1cccc(Cl)c1)NC(=O)OC(c1ccccc1)C(F)(F)c1cccc(Cl)c1` (stereo partly shown) [Compound A286], half-maximal inhibition (IC50) was put at 0.1 nM.

For the compound `CCCC[C@H](NC(=O)O[C@H](c1ccccc1)C(C)(C)c1cccc(Cl)c1)C(=O)N[C@@H](C[C@@H]1CCNC1=O)C(=O)C(=O)NC1CC1` [Compound A178], half-maximal inhibition (IC50) required 1040 nM.

Compound `CC(C)C[C@H](NC(=O)OC(c1ccc(Cl)cc1)C1(c2cccc(Cl)c2)CCCCC1)C(=O)N[C@@H](C[C@@H]1CCNC1=O)C(=O)C(=O)NC1CC1` (stereo partly shown) [Compound A36] returned an IC50 of 1150 nM.

Regarding `CCCC[C@H](NC(=O)OC(c1ccccc1)C(C)(C)c1cccc(F)c1)C(=O)N[C@@H](C[C@@H]1CCNC1=O)C(=O)C(=O)NC1CC1` (stereo partly shown) [Compound A43], the IC50 was 260 nM.

As for `CCC(=O)OC([C@H](C[C@@H]1CCNC1=O)NC(=O)[C@H](CC1CCCCC1)NC(=O)O[C@@H](c1ccccc1)C(F)(F)c1cccc(Cl)c1)S(=O)(=O)O` (stereo partly drawn) [Compound A229, sodium (2S,6S,9S)-1-(3-chlorophenyl)-6-(cyclohexylmethyl)-1,1-difluoro-4,7,12-trioxo-9-(((S)-2-oxopyrrolidin-3-yl)methyl)-2-phenyl-3,11-dioxa-5,8-diazatetradecane-10-sulfonate], the IC50 was not below 20000 nM.

`CC(C)C[C@H](NC(=O)O[C@H](c1cccc(F)c1)C(C)(C)c1cccc(Cl)c1)C(=O)N[C@@H](C[C@@H]1CCNC1=O)C(=O)C(=O)NC1CC1` [Compound A15]: half-maximal inhibition (IC50) required 310 nM. This lies in the sub-micromolar range.

Turning to `CCN1CCC(NC(=O)C(=O)[C@H](C[C@@H]2CCNC2=O)NC(=O)[C@H](CC(C)C)NC(=O)OC(c2ccc(F)cc2)C(CC)(CC)c2cccc(Cl)c2)CC1` (stereo partly shown) [Compound A32], the half-inhibitory concentration (IC50) stood at 10100 nM. This IC50 is about 33-fold higher than that of the compound before.
